Assay results reported in patent US9289443B2, “Pharmaceutical composition and method for preventing or treating hepatitis C” (INDUSTRIAL TECHNOLOGY RESEARCH INSTITUTE, priority 2010, dated 2016).

Key:
[1] = tested on: HCV replicon system (Huh-luc/neo-ET cell carrying I389luc-ubi-NS3-3'/ET); experiment: Inhibition of the HCV replication by determining the firefly luciferase activity (HCV replicon system); type: cell-based, Hepatitis C virus; conditions: Hepatitis C virus, Huh-luc/neo-ET, 48 h; compound concentration 4 μM; 2 days co-culture; luciferase activity; read-out: Inhibition rate (%)
Source text: HCV replicon system was used to test the effects of compounds on the treatment and prevention of hepatitis C. The HCV replicon system has been acknowledged as a screening tool for new drugs (Lohmann, V. et al., 1999, Replication of subgenomic hepatitis C virus RNAs in hepatoma cell line, Science. Vol. 285, 110-113; Bartenschlager, R. 2002, Hepatitis C virus replicons: potential role for drug development, Nature Reviews/Drug Discovery. Vol. 1, 911-916; Vorlijk, J. M. et al., 2003, A replicon-based bioassay for the measurement of interferons in patients with chronic hepatitis C, Journal of Virological Methods. 110:201-209). The HCV replicon system includes a Huh-luc/neo-ET cell carrying I389luc-ubi-NS3-3′/ET gene construct which monitors the replicative capability of the HCV. In the HCV replicon system, a firefly luciferase-ubiquitin-neomycin fusion protein is expressed by the translation of the internal ribosomal entry site (IRES) of the HCV, and the hepatitis C viral nonstructural proteins (NS3-5B), which includes protease, helicase and polymerase, are expressed by the translation of the IRES of the encephalomyocarditis virus (EMCV).
The IRES of the hepatitis C virus or the hepatitis C viral nonstructural proteins consist of a replication complex. When the replication complex is affected by the candidate compound, the activity of the HCV replicon system is inhibited and the activity of the luciferase is reduced. Accordingly, the inhibition of the HCV can be estimated by determining the activity of the intensity of the luciferase expressed by the Huh-luc/noe-ET cell.
Inhibition of the HCV Replication by Determining the Firefly Luciferase Activity
(§1) Huh-luc/neo-ET cells with a concentration of 2.5×10^4 cells/100 μl/well were seeded into a 96 well culture plate (Corning Incorporation COSTAR, 3599) and placed into a cell incubator for culturing.
The oleanolic acid derivatives as listed in Table 2 were co-cultured with Huh-luc/neo-ET cells for 2 days. The mediums were washed twice by 100 μl of 1×PBS (1 mM KH2PO4, 10 mM Na2HPO4, 137 mM NaCl, 2.7 mM KCl) and PBS was removed. 35 μl of 1× passive lysis buffer (Promega, E1941) was added to the cells and vortexed for 10 minutes to thoroughly lysis the cells.
30 μl/well of the cell suspension was then added to a 96 well white plate (NUNC, 236108) for the measurement of the luciferase activity. Subsequently, 40 μl/well of luminescence analysis buffer and 20 μl/well of luminescence substrate (1 mM D-Luciferin) were added into the 96 well white plates. The luciferase activity (Rlu/s) was measured by a microplate luminescence meter (Berthold, MPL4) immediately.
The luciferase activity of the control was set as a standard to calculate the inhibition rates (%) of HCV of the experiment groups. The inhibition rates was calculated by the following formula: […]
After the test compounds were serial diluted and the inhibition rates of the HCV replication were determined at different concentrations, the concentration at 50% inhibition of the HCV replication (IC50) was calculated by grafit5 software (Erithacus Software).
For each experiment, 0.5 ng/ml and 0.1 ng/ml of the PEG IFN alpha-2a were used as positive controls for the IC50 test. Meanwhile, 1 μg/ml of cyclosporine A (CsA) was also used as a positive control for the IC50 test.

[2] = Cell cytotoxic test (MTT) on Huh-luc/neo-ET cells; type: cell-based; conditions: human, concentration for 50% cell kill, two-day culture
Protocol: (§2) Cell Cytotoxic Test on Huh-luc/noe-ET Cells
as §1
(§3) The next day, the oleanolic acid derivatives as listed in the following Tables 1 and 2 were diluted with a DMEM culture medium to the concentrations of 28.73 μg/ml, 9.57 μg/ml, 3.19 μg/ml, 1.06 μg/ml, 0.35 μg/ml, 0.11 μg/ml, 0.039 μg/ml and 0.013 μg/ml, respectively, or diluted to the concentrations of 114.92 μg/ml, 38.33 μg/ml, 12.77 μg/ml, 4.25 μg/ml, 1.42 μg/ml, 0.46 μg/ml, 0.16 μg/ml and 0.057 μg/ml, respectively. The initial medium in the 96 well culture plate was sucked out by a vacuum pump (DOAT-704AA) without removing the cells. Then, the culture medium containing the oleanolic acid derivatives were added into the 96 well culture plate containing 100 μl/well of the cells as the experiment groups, while the untreated culture mediums were added to the cells as a control.
(§4) After a two-day culture, the medium was removed and each well containing cells was washed by 100 μl of 1×PBS (1 mM KH2PO4, 10 mM Na2HPO4, 137 mM NaCl, 2.7 mM KCl) twice. Precipitates were recorded and PBS was removed. 50 μl of the medium containing 0.5 mg/ml of MTT (Sigma, M2128) was added into each well of the 96 well culture plate. The 96 well culture plate was placed in a CO2 culture incubator for 1 hour. Subsequently, 150 μl of DMSO (Riedel-de Haül, 60153) was added to each well of the 96 well culture plate and vortexed (KS shaker Type 670) to thoroughly mix the resulting purple precipitates. The 96 well culture plate was then placed in a continuous wave length microwell plate analysis system (Molecular Devices, SPECTRAMAX 190) to measure the absorbance of cells at a wavelength of 560 nm.
(§5) The average absorbance of the control was set as 100% of the cell survival rates (%) to calculate the cell survival rates (%) of the experiment groups with different concentrations of the oleanolic acid derivatives.
(§6) The cell survival rate was calculated by the following formula: Absorbance of the experiment group/Absorbance of the control×100%
(§7) The data of the cell survival rates for all experiment groups were plotted on an x-y graph to see the distribution. A trend line was obtained. […]

Huh-luc/neo-ET cells = experiment: Cell cytotoxic test (MTT) on Huh-luc/neo-ET cells; type: cell-based; conditions: concentration for 15% cell kill, two-day culture
Protocol: as §2, §1, §3, §4, §5, §6, §7

Q: Which results are given for `CC(=O)NC1C(O[C@H]2CC[C@@]3(C)C(CC[C@]4(C)C3CC=C3C5CC(C)(C)CC[C@]5(C(=O)OC5OC(COC(=O)/C=C/c6ccccc6)C(OC6OC(CO)C(O)C(O)C6OC(C)=O)C(O)C5OC5OCC(OC6OCC(O)(CO)C6O)C(O)C5O)CC[C@]34C)C2(C)C)OC(COC2OCC(O)C(O)C2OC2OCC(O)C(O)C2O)C(OC2OC(CO)C(O)C(O)C2O)C1O` (stereo partly drawn) [A24]?
A: inhibition at 4 µM [1]: 54.8 ± 5.4%; CC50 at 2 days [2]: 14.1 µM; CC15 (Huh-luc/neo-ET cells): 4.53 µM
